From ChEMBL document CHEMBL3352001, “2,4-Dialkyl-8,9,10,11-tetrahydrobenzo[g]pyrimido[4,5-c]isoquinoline-1,3,7,12(2H,4H)-tetraones as new leads against Mycobacterium tuberculosis” (Eur J Med Chem, 2014)
Converted amounts (≈) assume the structure as drawn. “And” between values parts separate entries of the source, which are not always exact repeats. Identical values can stand only once. The source made the active and inactive calls. The rule behind the calls is not given here.

Key:
[1] = test system: Mycobacterium tuberculosis; assay: Antimycobacterial activity against Mycobacterium tuberculosis H37Rv transformed with pSMT1 luciferase reporter plasmid assessed as growth inhibition after 6 days by luminometry; assay type: functional; settings: for GI50: Mycobacterium tuberculosis, H37Rv, 144 h
[2] = test system: Mycobacterium tuberculosis; assay: Antimicrobial activity against multi-drug resistant Mycobacterium tuberculosis LAM-1 strain clinical isolate assessed as critical concentration to induce 99% growth reduction at 10 to 20 ug/mL by BACTEC_MGIT_960-TB detection system; assay type: functional
[3] = test system: Mycobacterium tuberculosis; assay: Antimicrobial activity against multi-drug resistant Mycobacterium tuberculosis LAM-1 strain clinical isolate assessed as growth reduction by BACTEC_MGIT_960-TB detection system; assay type: functional
[4] = test system: Mycobacterium tuberculosis; assay: Antimicrobial activity against multi-drug resistant Mycobacterium tuberculosis LAM-1 strain clinical isolate assessed as growth reduction at 0.1 ug/mL by BACTEC_MGIT_960-TB detection system; assay type: functional, organism-based

SMILES | GI90 [1] [µg/mL] | GI99 [1] | GI50 [1] [µg/mL] | INH [2] [µg/mL] | MIC [3] [µg/mL] | inhibition [4]
Cn1c(=O)c2c3c(cnc2n(C)c1=O)C(=O)C1=C(C3=O)C2CCC1CC2 | 6.98 (≈ 19.9 µM) | 15.43 µg/mL | 2.83 (≈ 8.05 µM) |  |  | 
CCCCCCCn1c(=O)c2c3c(cnc2n(CCCCCCC)c1=O)C(=O)C1=C(C3=O)C2CCC1CC2 | 3.78 (≈ 7.27 µM) | 6.89 µg/mL | 1.32 (≈ 2.54 µM) | 10 |  | 
CCCCCCn1c(=O)c2c3c(cnc2n(CCCCCC)c1=O)C(=O)C1=C(C3=O)C2CCC1CC2 | 6.13 (≈ 12.5 µM) | 14.89 µg/mL | 1.36 (≈ 2.77 µM) |  |  | 
CC(C)CCn1c(=O)c2c3c(cnc2n(CCC(C)C)c1=O)C(=O)C1=C(C3=O)C2CCC1C2 (stereo not drawn) | 8.11 (≈ 18 µM) | 16.32 µg/mL | 2.41 (≈ 5.36 µM) |  |  | 
CC(C)Cn1c(=O)c2c3c(cnc2n(CC(C)C)c1=O)C(=O)C1=C(C3=O)C2CCC1C2 (stereo not drawn) | 5.3 (≈ 12.6 µM) | 11.01 µg/mL | 2.08 (≈ 4.93 µM) |  |  | 
CCCn1c(=O)c2c3c(cnc2n(CCC)c1=O)C(=O)C1=C(C3=O)C2CCC1C2 (stereo not drawn) | 4.28 (≈ 10.9 µM) | 6.23 µg/mL | 1.73 (≈ 4.4 µM) |  |  | 
Cn1c(=O)c2c3c(cnc2n(C)c1=O)C(=O)C1=C(C3=O)C2CCC1C2 (stereo not drawn) | 5.87 (≈ 17.4 µM) | 10.43 µg/mL | 1.58 (≈ 4.68 µM) |  |  | 
CC(C)C1CCC(=O)c2c1ncc1c2C(=O)C2=C(C1=O)C1CCC2C1 (stereo not drawn) |  | 24.66 µg/mL and 48.06 µg/mL | 5.55 (≈ 16.5 µM) |  |  | 
CC(C)Cn1c(=O)c2c3c(cnc2n(CC(C)C)c1=O)C(=O)C1=C(C3=O)C2CCC1CC2 | 9.31 (≈ 21.4 µM) | 12.28 µg/mL | 4.36 (≈ 10 µM) |  |  | 
CCn1c(=O)c2c3c(cnc2n(CC)c1=O)C(=O)C1=C(C3=O)C2CCC1CC2 | 4.33 (≈ 11.4 µM) | 12.06 µg/mL | 2.55 (≈ 6.72 µM) |  |  | 
CCCCCn1c(=O)c2c3c(cnc2n(CCCCC)c1=O)C(=O)C1=C(C3=O)C2CCC1CC2 | 4.78 (≈ 10.3 µM) | 13.37 µg/mL | 1.49 (≈ 3.21 µM) |  |  | 
CCCCn1c(=O)c2c3c(cnc2n(CCCC)c1=O)C(=O)C1=C(C3=O)C2CCC1C2 (stereo not drawn) | 4.59 (≈ 10.9 µM) | 7.23 µg/mL | 1.46 (≈ 3.46 µM) |  |  | 
CCCCCn1c(=O)c2c3c(cnc2n(CCCCC)c1=O)C(=O)C1=C(C3=O)C2CCC1C2 (stereo not drawn) | 4.09 (≈ 9.1 µM) | 9.54 µg/mL | 1.26 (≈ 2.8 µM) |  |  | 
CCCn1c(=O)c2c3c(cnc2n(CCC)c1=O)C(=O)C1=C(C3=O)C2CCC1CC2 | 5.98 (≈ 14.7 µM) | 7.34 µg/mL | 2.59 (≈ 6.36 µM) |  |  | 
CCCCn1c(=O)c2c3c(cnc2n(CCCC)c1=O)C(=O)C1=C(C3=O)C2CCC1CC2 | 5.2 (≈ 11.9 µM) | 9.6 µg/mL | 1.84 (≈ 4.22 µM) |  |  | 
CCn1c(=O)c2c3c(cnc2n(CC)c1=O)C(=O)C1=C(C3=O)C2CCC1C2 (stereo not drawn) | 5.32 (≈ 14.6 µM) | 9.21 µg/mL | 1.69 (≈ 4.63 µM) |  |  | 
CC(C)CCn1c(=O)c2c3c(cnc2n(CCC(C)C)c1=O)C(=O)C1=C(C3=O)C2CCC1CC2 | 10.33 (≈ 22.3 µM) | 22.88 µg/mL | 4.9 (≈ 10.6 µM) |  |  | 
CCCCCCn1c(=O)c2c3c(cnc2n(CCCCCC)c1=O)C(=O)C1=C(C3=O)C2CCC1C2 (stereo not drawn) | 5.43 (≈ 11.4 µM) | 11.6 µg/mL | 1.22 (≈ 2.55 µM) |  |  | 
CC(C)n1c(=O)c2c3c(cnc2n(C(C)C)c1=O)C(=O)C1=C(C3=O)C2CCC1C2 (stereo not drawn) | 1.5 (≈ 3.81 µM) | 3 µg/mL | 0.52 (≈ 1.32 µM) | 5 | 5 (≈ 12.7 µM) | 
NNC(=O)c1ccncc1 [ISONIAZID] |  | 0.04 µg/mL and 0.06 µg/mL | 0.01 (≈ 0.0729 µM) |  |  | inactive
CC(C)n1c(=O)c2c3c(cnc2n(C(C)C)c1=O)C(=O)C1=C(C3=O)C2CCC1CC2 | 2.32 (≈ 5.69 µM) | 4.89 µg/mL | 0.73 (≈ 1.79 µM) | 10 |  | 
CCCCCCCn1c(=O)c2c3c(cnc2n(CCCCCCC)c1=O)C(=O)C1=C(C3=O)C2CCC1C2 (stereo not drawn) | 2.45 (≈ 4.85 µM) | 5.57 µg/mL | 0.63 (≈ 1.25 µM) | 10 |  | 
CC(C)C1CCc2ncc3c(c2C1=O)C(=O)C1=C(C3=O)C2CCC1C2 (stereo not drawn) | 39.2 (≈ 117 µM) | >100 µg/mL | 20.4 (≈ 60.8 µM) |  |  | 
